# Laboratory results taken from patent US20260265334A1, “STAPLED PEPTIDES” (THE FLOREY INSTITUTE OF NEUROSCIENCE AND MENTAL HEALTH, priority 2023, published 2026).
# Bridge positions count the residues as written; N and C are the ends. Square brackets hold non-standard residues; d marks the D form. Peptide text beside a SMILES is read from it. I, II: the chains in the order shown. αMeF = C[C@](N)(Cc1ccccc1)C(=O)O
# Assays:
# C57B16 mice = assay: Colorectal propulsion (bead expulsion) in loperamide-constipated mice; format: in vivo, mouse; conditions: 20 μg/kg i.p., 10 minutes after loperamide 1 mg/kg s.c.
# Experimental: Male C57B16 mice (20-30 g; ARC), between the ages of 3 to 5 months, were used for all studies. All experiments were conducted in accordance with the National Health and Medical Research Council (NHMRC) guidelines for the care and use of animals and with approval from the Florey Institute of Neuroscience and Mental Health Animal Ethics Committee (#18-128 FINMH and #18-081 FINMH). All animals were group housed (2-6 per cage) and maintained in a humidity-controlled room at 22° C. under a 12 hours light/dark cycle with access to food and water ad libitum.
# Loperamide (Sigma-Aldrich) was prepared in 1% Tween-80 (SigmaAldrich) in distilled water and was administered subcutaneously (s.c.) at the back of the neck to induce constipation. Mice were injected with either vehicle (1% Tween-80/water) or loperamide (0.3, 1, 3 mg/kg). INSL5-A13 (20 μg/kg) (SEQ ID NOs 9 and 10) and single-chain αF stapled analogue (200 μg/kg) (SEQ ID NO 16) were dissolved in distilled water and injected intraperitoneally (i.p.) 10 minutes after loperamide was administered (1 mg/kg, s.c.). At 20 minutes post peptide injection, mice were lightly anesthetized with 2% (v/v) isoflurane in O2, administered at 1 L/min for a maximum of 15 seconds following induction with 5% isoflurane in O2 at 1 L/min. […] The time taken from bead insertion to bead expulsion was recorded. […] The time was scored as 30 minutes. […]
# RXFP4 [1] = target: T1, RXFP4 (Homo sapiens, UniProt Q8TDU9); assay: Eu-R3/I5 competition binding assay in CHO-K1-RXFP4 cells; set-up: expressed in transfected cells
# Experimental: An Eu-R3/15 competition binding assay in CHO-K1-RXFP4 cells was carried out.
# (§1) Competition binding curves for each peptide were performed in triplicate and each experiment was performed independently at least three times. Fluorescent measurements were carried out at excitation of 340 nm and emission of 614 nm on a BMG POLARstar plate reader (BMG Labtech, Melbourne, Australia). Pooled data were presented as mean±S.E.M. of specific binding and are fitted using a one-site binding curve in GraphPad Prism version 8 (GraphPad Inc., San Diego, USA). Statistical analyses were conducted using one-way analysis of variance with uncorrected Fisher's least significant difference (LSD) post-hoc analysis in GraphPad Prism version 9.
# (§2) An additional analogue of INSL5 was utilised as a control, INSL5-A13, having an A chain (SEQ ID NO: 9) and a B chain (SEQ ID NO: 10) with a first disulfide bond between Cys 1 of the A chain and Cys 7 of the B chain, and a second disulfide bond between Cys 14 of the A chain and Cys 19 of the B chain:
# (§3) Competition binding and cAMP activity assay were conducted by a procedure analogous to that described above for Example 3. The results are shown in FIG. 24 (RXFP3) and FIG. 25 (RXFP4).
# Target sequence in this assay (Q8TDU9 whole entry): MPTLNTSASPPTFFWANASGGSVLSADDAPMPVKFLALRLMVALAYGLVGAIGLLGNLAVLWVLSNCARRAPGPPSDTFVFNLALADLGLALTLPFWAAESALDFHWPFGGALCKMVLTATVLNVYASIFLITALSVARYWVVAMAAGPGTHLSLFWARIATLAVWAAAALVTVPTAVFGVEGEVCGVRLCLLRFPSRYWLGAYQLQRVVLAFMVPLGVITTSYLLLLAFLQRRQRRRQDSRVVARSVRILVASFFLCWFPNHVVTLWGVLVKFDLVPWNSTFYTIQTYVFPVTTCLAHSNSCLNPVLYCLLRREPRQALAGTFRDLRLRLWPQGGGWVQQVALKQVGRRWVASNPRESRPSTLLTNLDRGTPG
# RXFP4 [2] = target: T1, RXFP4; assay: Inhibition of forskolin-induced cAMP activity in CHO-K1-RXFP4 cells (pCRE β-galactosidase reporter); format: cell-based; set-up: expressed in transfected cells
# Experimental: For agonist assays, cells were stimulated with forskolin (5 μM for RXFP3, 1 μM for RXFP4)±increasing concentrations of each peptide for 6 hours. Data were expressed as the % forskolin activity, whereby 100% was defined as forskolin alone and 0% as maximum agonist stimulation (1 μM Analogue 2 for RXFP3 and 1 μM Analogue 13 for RXFP4). Data were analysed and plotted using GraphPad Prism 9 and are expressed as the mean±SEM of the pooled data. Statistical analysis was conducted using one-way ANOVA with Uncorrected Fisher's LSD post-hoc analysis using GraphPad Prism 9.
# as §2, §3
# Target sequence in this assay (Q8TDU9 whole entry): as above
# [3] = tested on: mouse model of inflammatory persistent pain; assay: CFA model of inflammatory persistent pain; format: in vivo; conditions: co-injection with RXFP3 agonist
# Experimental: Pilot studies were conducted in a mouse model of inflammatory persistent pain obtained by intraplantar injection of Complete Freund's Adjuvant (CFA). […] The effect is maximal at 30 minutes after the injection and vanished after 1 hour. The same result has been obtained in a rat CFA model with a similar time course of the antinociceptive effect.
# RXFP3 [4] = target: T2, RXFP3 (Homo sapiens, UniProt Q9NSD7); assay: Eu-H3B1-22R competition binding assay in CHO-K1-RXFP3 cells; conditions: 5 nM Eu-H3B1-22R, mean ± SEM (n), Table 2, read-out: Eu-H3B1-22R pKi (converted)
# T2 construct: expressed in transfected cells
# T2 sequence (Q9NSD7 1-469): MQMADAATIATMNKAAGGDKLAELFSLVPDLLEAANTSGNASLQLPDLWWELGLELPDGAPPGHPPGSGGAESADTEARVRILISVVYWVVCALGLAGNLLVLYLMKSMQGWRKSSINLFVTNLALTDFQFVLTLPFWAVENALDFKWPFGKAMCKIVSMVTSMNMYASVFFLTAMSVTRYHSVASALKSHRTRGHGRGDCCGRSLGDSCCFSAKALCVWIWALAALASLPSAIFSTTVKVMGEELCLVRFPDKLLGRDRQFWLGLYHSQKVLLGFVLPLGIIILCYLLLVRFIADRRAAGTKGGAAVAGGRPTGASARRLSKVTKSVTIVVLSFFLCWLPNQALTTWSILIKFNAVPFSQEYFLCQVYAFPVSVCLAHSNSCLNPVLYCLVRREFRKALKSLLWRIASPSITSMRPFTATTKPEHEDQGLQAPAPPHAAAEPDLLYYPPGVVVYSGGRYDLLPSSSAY
# Experimental: An Eu-H3B1-22R competition binding assay was conducted in CHO-K1-RXFP3 cells.
# as §1, §3
# RXFP3 [5] = target: T2, RXFP3; assay: Inhibition of forskolin-induced cAMP activity in CHO-K1-RXFP3 cells (pCRE β-galactosidase reporter); format: cell-based; conditions: 5 μM forskolin, 6 hours, Table 2, read-out: cAMP pEC50 (converted)
# Experimental: Since RXFP3 is coupled to Gi/o proteins, peptides were tested for their ability to activate RXFP3 as measured via their ability to inhibit forskolin-induced cAMP activity in CHO-K1-RXFP3 or CHO-K1-RXFP4 cells transfected with a pCRE (cAMP Response Element) β-galactosidase reporter plasmid (as described in Belgi, A et al., Structure and function relationship of murine insulin-like peptide 5 (INSL5): free C-terminus is essential for RXFP4 receptor binding and activation. Biochemistry 2011, 50 (39), 8352-61; and Haugaard-Kedstrom, L. M et al., Synthesis and pharmacological characterization of a europium-labelled single-chain antagonist for binding studies of the relaxin-3 receptor RXFP3. Amino Acids 2015, 47 (6), 1267-71). For agonist assays, cells were stimulated with forskolin (5 μM for RXFP3, 1 μM for RXFP4)±increasing concentrations of each peptide for 6 hours. Data were expressed as the % forskolin activity, whereby 100% was defined as forskolin alone and 0% as maximum agonist stimulation (1 μM Analogue 2 for RXFP3 and 1 μM Analogue 13 for RXFP4). Data were analysed and plotted using GraphPad Prism 9 and are expressed as the mean±SEM of the pooled data. Statistical analysis was conducted using one-way ANOVA with Uncorrected Fisher's LSD post-hoc analysis using GraphPad Prism 9.
# as §3
# RXFP3 [6] = target: T3, RXFP3 (Homo sapiens, UniProt Q9NSD7); assay: NanoBRET β-arrestin2 recruitment assay, RXFP3-NLuc / Venus-β-arrestin2 in HEK293T cells; format: cell-based
# T3 construct: expressed in transfected cells; host or cells: HEK293T (transient, Lipofectamine 2000, pcDNA3.1/Zeo(+))
# Experimental: (§4) The inventors assessed if H3B10-27(13/17αF) retained the ability to recruit β-arrestin2 and therefore display full agonist activity at RXFP3 and RXFP4, in comparison to Peptide 5.
# The RXFP3 β-arrestin2 recruitment assay was carried out by PCR cloning NLuc onto the C-terminus of human RXFP3 in an identical manner to the RXFP3-rLuc8 construct to create pcDNA3.1-RXFP3-NLuc. The construct was sequenced on both strands to confirm that the NLuc was in frame with RXFP3 and there were no additional PCR mutations. pcDNA3.1-RXFP3-NL was tested in parallel with pcDNA3.1-RXFP3 in cAMP activity assays to determine if the C-terminal nanoluciferase fusion affected agonist activity.
# For NanoBRET β-arrestin2 recruitment assays, HEK293T cells were plated onto a six-well plate, and were transfected the following day with β-arrestin2-Venus and either RXFP3-Nluc or RXFP4-Nluc, in the pcDNA3.1/Zeo(+) vector, using Lipofectamine 2000. The next day, cells were washed with DPBS and resuspended in complete media containing 25 mM HEPES but no phenol red, and were seeded into a 96-well CulturPlate (PerkinElmer). […] Emissions were detected simultaneously using a PHERAstar FSX plate reader (BMG Labtech) with 450/80 nm and 535/30 nm filters. Ligand-induced BRET ratio was calculated by subtracting the ratio of 535/30 nm emissions to 450/80 nm emissions for vehicle from the same ratio for ligand-treated wells. […]
# T3 sequence (P32121 whole entry partner, one chain of several): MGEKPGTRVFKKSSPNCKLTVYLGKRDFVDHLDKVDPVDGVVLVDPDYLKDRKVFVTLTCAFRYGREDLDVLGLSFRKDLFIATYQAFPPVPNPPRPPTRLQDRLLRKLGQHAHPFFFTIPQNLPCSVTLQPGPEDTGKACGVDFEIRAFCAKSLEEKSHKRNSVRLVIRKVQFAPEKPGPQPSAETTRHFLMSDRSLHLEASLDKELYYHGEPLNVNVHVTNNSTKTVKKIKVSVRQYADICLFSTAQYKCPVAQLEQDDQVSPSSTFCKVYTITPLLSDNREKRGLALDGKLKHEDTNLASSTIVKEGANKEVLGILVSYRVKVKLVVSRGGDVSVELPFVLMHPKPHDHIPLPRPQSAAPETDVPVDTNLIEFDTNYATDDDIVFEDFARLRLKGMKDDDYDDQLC
# [7] = In vitro serum stability in human serum at 37° C.; conditions: human serum
# Experimental: Human serum (400 μl) was mixed with 200 μg peptide dissolved in 100 μl of water at 37° C. Eighty (80) μl of sample was removed at various time points (0 min, 30 min, 60 min, 120 min, 240 min, and 480 min), and 160 μl of acetonitrile added to precipitate plasma proteins. The solution was then centrifuged at 12000 rpm for 15 min at 4° C. 200 μl of supernatant was taken and mixed with 240 μl of milli-Q water and each sample analysed by RP-HPLC (2×80 μL injection) by measuring the area under the peak at appropriate retention times compared to the peak area of the peptide at time zero (100%). Data analysis (n=3, duplicate) was performed using a non-linear fit one-phase decay model in GraphPad Prism 9.
# RXFP4 [8] = target: T1, RXFP4; assay: NanoBRET β-arrestin2 recruitment assay, RXFP4-NLuc / Venus-β-arrestin2 in HEK293T cells; format: cell-based; set-up: expressed in transfected cells; host or cells: HEK293T (transient, Lipofectamine 2000, pcDNA3.1/Zeo(+)); conditions: AUC of the entire time course; text of b227; read-out: pEC50, RXFP4 β-arrestin2 recruitment (converted)
# Experimental: as §4
# Target sequence in this assay (Q8TDU9 whole entry): as the sequence (Q8TDU9 whole entry) above
# Target sequence in this assay (P32121 whole entry partner): as the sequence (P32121 whole entry partner, one chain of several) above
# For NanoBRET β-arrestin2 recruitment assays, HEK293T cells were plated onto a six-well plate, and were transfected the following day with β-arrestin2-Venus and either RXFP3-Nluc or RXFP4-Nluc, in the pcDNA3.1/Zeo(+) vector, using Lipofectamine 2000. The next day, cells were washed with DPBS and resuspended in complete media containing 25 mM HEPES but no phenol red, and were seeded into a 96-well CulturPlate (PerkinElmer). The next day, prior to the assay, cells were pre-incubated in phenol red free media with NLuc substrate, 5 μM coelenterazine 400a for RXFP3-nLuc and 5 μM coelenterazine h for RXFP4-NLuc (both from Nanolight, Pinetop, AZ, USA) to establish a baseline, before addition of ligand or vehicle. Emissions were detected simultaneously using a PHERAstar FSX plate reader (BMG Labtech) with 450/80 nm and 535/30 nm filters. Ligand-induced BRET ratio was calculated by subtracting the ratio of 535/30 nm emissions to 450/80 nm emissions for vehicle from the same ratio for ligand-treated wells. […]
molecule,measurement,setting,value
"CC[C@H](C)[C@@H]1NC(=O)[C@H](Cc2ccc(O)cc2)NC(=O)[C@H]([C@@H](C)CC)NC(=O)[C@H](C(C)C)NC(=O)[C@H]([C@@H](C)O)NC(=O)[C@H](CCCNC(=N)N)NC(=O)[C@H]([C@@H](C)CC)NC(=O)[C@H](Cc2ccc(O)cc2)NC(=O)[C@H](CCC(=O)O)NC(=O)[C@H](CC(C)C)NC(=O)CNC(=O)[C@@H](NC(=O)[C@H](CC(C)C)NC(=O)[C@H](CCCNC(=N)N)NC(=O)[C@@H](NC(=O)[C@H](CO)NC(=O)[C@H](CCC(=O)O)NC(=O)[C@@H](N)CCCCN)C(C)C)CSSC[C@H](N)C(=O)N[C@@H]([C@@H](C)O)C(=O)N[C@@H](CC(=O)O)C(=O)NCC(=O)N[C@@H](C)C(=O)N[C@@H](CO)C(=O)N[C@@H](CCSC)C(=O)N[C@@H](CCCCN)C(=O)N[C@@H](CC(=O)O)C(=O)N[C@@H](CC(C)C)C(=O)N[C@@H](CO)C(=O)N[C@@H](C)C(=O)N[C@@H](CC(C)C)C(=O)N[C@H](C(=O)O)CSSC[C@@H](C(=O)N[C@@H](C)C(=O)N[C@@H](CO)C(=O)N[C@@H](CO)C(=O)N[C@@H](CCCNC(=N)N)C(=O)N[C@@H](Cc2c[nH]c3ccccc23)C(=O)O)NC1=O [INSL5-A13] (I: H-KESVRLCGLEYIRTVIYICASSRW-OH / II: H-CTDGASMKDLSALC-OH; disulfide I:7-II:1, I:19-II:14; N-terminus and C-terminus assumed)",colorectal propulsion (bead expulsion),C57B16 mice,effective in accelerating colorectal propulsion
same,Eu-R3/I5 pKi,"RXFP4 [1]; RXFP4, Table 5",7.46 ± 0.06 (7)
same,cAMP pEC50,"RXFP4 [2]; RXFP4, Table 5",8.10 ± 0.10 (4)
"R3(B1-22): R3(B1-22) RXFP3 antagonist, co-injected in pain model; possibly the same as H3B1-22R (RAAPYGVRLSGREFIRAVIFTSR)",effect of co-injection on the antinociceptive effects of the agonists,[3],fully abolished
CC[C@H](C)[C@H](NC(=O)[C@H](Cc1ccccc1)NC(=O)[C@](C)(Cc1ccccc1)NC(=O)[C@H](CCCNC(=N)N)NC(=O)CNC(=O)[C@@H](N)CO)C(=O)N[C@@H](CCCNC(=N)N)C(=O)N[C@@](C)(Cc1ccccc1)C(=O)N[C@H](C(=O)N[C@H](C(=O)N[C@@H](Cc1ccccc1)C(=O)N[C@H](C(=O)N[C@@H](CO)C(=O)NCC(=O)NCC(=O)N[C@@H](CO)C(=O)N[C@@H](CCCNC(=N)N)C(=O)N[C@@H](Cc1c[nH]c2ccccc12)C(=O)O)[C@@H](C)O)[C@@H](C)CC)C(C)C [H3B10-27(13/17αF)] (H-SGR[αMeF]FIR[αMeF]VIFTSGGSRW-OH),Ki,RXFP3 [4],148 nM
same,EC50,RXFP3 [5],6.92 nM
same,EC50,"RXFP3 [6]; AUC of NanoBRET time course, Table 4, read-out: RXFP3 pEC50 (β-arrestin2 recruitment) (converted)",64.6 nM
same,EC50,"RXFP3 [6]; AUC of the entire time course, text of b227, read-out: pEC50, RXFP3 β-arrestin2 recruitment (converted)",89.1 nM
same,Ki,"RXFP4 [1]; RXFP4, CHO-K1-RXFP4 cells, 5 nM Eu-R3/I5, Table 3, read-out: Eu-R3/I5 pKi (converted)",155 nM
same,EC50,"RXFP4 [2]; RXFP4, CHO-K1-RXFP4 cells, 1 μM forskolin, 6 hours, Table 3, read-out: cAMP pEC50 (converted)",55 nM
same,half-life at 400 µg/mL,[7],~5 h
same,EC50,RXFP4 [8],2690 nM
